Common to all, as to assay: In vitro susceptibility testing, MIC by NCCLS broth microdilution
(In general: Broth dilution looks for growth in wells or tubes with falling amounts of substance.)

The test system of one assay is E. coli OC2605. The assay is classed as cell-based. To be noted: CAMHB, 35° C., 16-20 h. As to the method:
(§1) Minimum inhibitory concentrations (“MICs”) were determined by the NCCLS broth microdilution procedure for susceptibility testing for bacteria that grow aerobically (National Committee for Clinical Laboratory Standards, 1997. Methods for dilution antimicrobial Susceptibility tests for bacteria that grow aerobically, 4th ed. Approved standard. NCCLS Document M7-A4. National Committee for Clinical Laboratory Standards, Villanova, Pa.). stock solutions were prepared on the day of the test and appropriate aliquots were added to cation adjusted Mueller-Hinton broth (CAMHB) or Haemophilus test media. Two-fold serial dilutions were prepared and added to wells in microtiter plates. Final test concentrations ranged from 16 to 0.015 μg/ml. Broth cultures of bacteria inoculated from growth on overnight plates for all test bacteria except Streptococcus pneumoniae and Haemophilus influenzae were incubated at 35° C. and then adjusted to the Kirby Bauer standard and diluted in CAMHB to achieve a final inoculum concentration of approximately 5×10^5 CFU/ml. Inocula for S. pneumoniae and H. influenzae were prepared by directly suspending colonies from an overnight plate, adjusting the turbidity and diluting as above. S. pneumoniae media was supplemented with 2.5% lysed horse blood. All plates were incubated in ambient air at 35° C. for […] for S. peteumoniae and Haemophilus influenzae and 16-20 h for all other bacteria.

The test system of another assay is S. aureus ATCC29213. The format is cell-based. The following applies: CAMHB, 35° C., 16-20 h. On the procedure:
as §1

A further assay has as its system E. faecalis ATCC29212. The format is cell-based. The following applies: CAMHB, 35° C., 16-20 h. On the procedure:
as §1

A further assay has as its system S. pneumoniae ATCC49619. The assay is classed as cell-based, Streptococcus pneumoniae. The following applies: media with 2.5% lysed horse blood, 35° C. On the procedure: (§2) Minimum inhibitory concentrations (“MICs”) were determined by the NCCLS broth microdilution procedure for susceptibility testing for bacteria that grow aerobically (National Committee for Clinical Laboratory Standards, 1997. Methods for dilution antimicrobial Susceptibility tests for bacteria that grow aerobically, 4th ed. Approved standard. NCCLS Document M7-A4. National Committee for Clinical Laboratory Standards, Villanova, Pa.). stock solutions were prepared on the day of the test and appropriate aliquots were added to cation adjusted Mueller-Hinton broth (CAMHB) or Haemophilus test media. Two-fold serial dilutions were prepared and added to wells in microtiter plates. Final test concentrations ranged from 16 to 0.015 μg/ml. Broth cultures of bacteria inoculated from growth on overnight plates for all test bacteria except Streptococcus pneumoniae and Haemophilus influenzae were incubated at 35° C. and then adjusted to the Kirby Bauer standard and diluted in CAMHB to achieve a final inoculum concentration of approximately 5×10^5 CFU/ml. Inocula for S. pneumoniae and H. influenzae were prepared by directly suspending colonies from an overnight plate, adjusting the turbidity and diluting as above. S. pneumoniae media was supplemented with 2.5% lysed horse blood. […]

The next assay concerns H. influenzae OC4883. The assay is classed as cell-based, Haemophilus influenzae. The following applies: Haemophilus test media, 35° C. As to the method: as §2

Values after ≈ are worked out from the molar mass of the structure shown.

Consider `CC[C@H]1OC(=O)[C@H](C)[C@@H](O[C@H]2C[C@@](C)(OC)[C@@H](O)[C@H](C)O2)[C@H](C)[C@@H](O[C@@H]2O[C@H](C)C[C@H](N(C)C)[C@H]2O)[C@](C)(O)C[C@@H](C)C(=O)[C@H](C)[C@@H](O)[C@]1(C)O` [Erythromycin], for which the MIC with E. coli OC2605 (Escherichia coli, OC2605, Table 3, Table 2 compounds) is > 16 µg/mL; in the assay on S. aureus ATCC29213 (Staphylococcus aureus, ATCC29213, Table 3, Table 2 compounds) it was 0.5 µg/mL (≈ 0.681 µM); against E. faecalis ATCC29212 (Enterococcus faecalis, ATCC29212, Table 3, Table 2 compounds), 1 µg/mL (≈ 1.36 µM); against S. pneumoniae ATCC49619 (Streptococcus pneumoniae, ATCC49619, Table 3, Table 2 compounds), 0.06 µg/mL (≈ 0.0818 µM); with H. influenzae OC4883 (Haemophilus influenzae, OC4883, Table 3, Table 2 compounds), 1 µg/mL (≈ 1.36 µM). The “In Vitro Susceptibility (MIC) E. coli OC2605” value in the assay with E. coli OC2605 (Table 4, Formula III compounds) is >16 µg/mL. In addition, the “In Vitro Susceptibility (MIC) S. aureus ATCC29213” value in the assay with S. aureus ATCC29213 (Table 4, Formula III compounds) turned out to be 0.5 µg/mL. Also, in the assay on E. faecalis ATCC29212 (Table 4, Formula III compounds), the “In Vitro Susceptibility (MIC) E. faecalis ATCC29212” value was found to be 1 µg/mL. Moreover, the “In Vitro Susceptibility (MIC) S. pneumoniae ATCC49619” value in the assay with S. pneumoniae ATCC49619 (Table 4, Formula III compounds) was 0.06 µg/mL. The “In Vitro Susceptibility (MIC) H. influenzae OC4883” value in the assay with H. influenzae OC4883 (Table 4, Formula III compounds) stood at 1 µg/mL.

The values are drawn from patent publication US6590083B1, “Ketolide antibacterials” (Ortho-McNeil Pharmaceutical, Inc., priority 1999, dated 2003).
